{
  "source": "paper PMC12046717",
  "about": "(Acta Neuropathologica Communications, 2025)",
  "key": {"[1]": {"system": "phospho-ERK (p-ERK) in SW1573 cells", "assay": "Western blot of phospho-ERK", "type": "cell-based, human", "conditions": "48 h, 1,000 nM adagrasib and/or 1,000 nM abemaciclib"}, "[2]": {"assay": "Pharmacokinetic study, plasma and brain concentration by LC-MS/MS", "conditions": "H2122-FmC and SW1573-FmC tumor-bearing mice, oral adagrasib 75 mg/kg BID or abemaciclib 50 mg/kg QD for three days, 1 h after last dose"}, "SW1573 cells [3]": {"system": "SW1573 cells", "assay": "CyQUANT cell proliferation assay", "type": "cell-based", "conditions": "Homo sapiens, SW1573, 120 h", "protocol": "(§1) Human NSCLC cell lines, SW1573 and H2122 cells, were obtained from the American Type Culture Collection. Both cell lines carry a KRAS G12C mutation and CDKN2A homozygous deletion. The cell lines were authenticated by short tandem fingerprinting in 2022 and periodically tested to be Mycoplasma-free. H2122 cells were cultured in RPMI-1640 supplemented with 10% fetal bovine serum. SW1573 cells were maintained in DMEM supplemented with 5% FBS. Both cell lines were cultured at 37 °C in a 5% CO2-humidified atmosphere and passaged when they reached 80–90% confluence. Cells were transduced with a lentivirus vector carrying cDNA coding for firefly luciferase and mCherry to generate SW1573-FmC and H2122-FmC for in vivo studies."}, "human p-gp": {"system": "human p-gp", "conditions": "human p-gp ref 6, 34; cited from earlier work"}, "[4]": {"system": "SW1573-FmC intracranial tumors", "assay": "Pharmacodynamic immunohistochemistry of brain tumors", "type": "in vivo, mice", "conditions": "SW1573-FmC xenograft, 3 days treatment", "description": "Formalin-fixed paraffin-embedded Sects. (7-μm thickness) were subjected to immunohistochemistry according to the methods described previously. Primary antibodies used included those directed at: p-ERK (CST), p-Rb (CST), Ki67 (Dako, MIB1) and Cleaved caspase 3 (CST, 9661). Immuno-positive cells and negative cells within tumor tissues were counted and the fraction of positive cells determined."}, "H2122-FmC cells": {"system": "H2122-FmC cells", "assay": "CyQUANT cell proliferation assay, FmC-transduced cells", "type": "cell-based", "conditions": "Homo sapiens, 120h drug exposure", "protocol": "as §1, with “studies. […]” for “studies.”\n(§2) cell viability of firefly-luciferase and mCherry (FmC)-transduced NSCLC cells.\n(§3) A, Image representing cell line transduction procedures, involving overnight exposure with a lentivirus vector expressing Firefly luciferase and mCherry. B, C, CellTiter-Glo and CyQUANT […]\n(§4) Highest Single Agent model analysis in SW1573-FmC (D) and H2122-FmC (E) cell lines (96h […]\n(§5) HSA synergy and antagonism"}, "SW1573-FmC cells": {"system": "SW1573-FmC cells", "assay": "CyQUANT cell proliferation assay, FmC-transduced cells", "type": "cell-based", "conditions": "Homo sapiens, 120h drug exposure", "protocol": "as §1, with “studies. […]” for “studies.”\nas §2, §3, §4, §5"}, "H2122 cells [5]": {"system": "H2122 cells", "assay": "Flow cytometry cell cycle analysis", "type": "cell-based, human", "conditions": "24 h drug exposure", "protocol": "(§6) Cells were harvested, washed with PBS, and fixed in 2% paraformaldehyde. After the samples were prepared for analysis, fixed cells were resuspended in media and incubated with Vybrant DyeCycle Violet stain (ThermoFisher) for 30 min at 37 °C while protected from light. Flow cytometry was conducted using LSR II Cytometer (BD Biosciences) and analysis was done with FlowJo software and the Dean Jett-Fox algorithm."}, "SW1573 cells [6]": {"system": "SW1573 cells", "assay": "Flow cytometry cell cycle analysis", "type": "cell-based, human", "conditions": "24 h drug exposure", "protocol": "as §6"}, "[7]": {"system": "p-Rb (Ser807/811) in SW1573 cells", "assay": "Western blot of phospho-Rb", "type": "cell-based, human", "conditions": "24 h exposure", "protocol": "(§7) Cells and tissues were lysed in RIPA lysis buffer (Pierce). The protein concentration was measured using Bradford assay (BioRad). Protein lysates were separated by Mini-PROTEAN TGX gel electrophoresis (BioRad) and subsequently transferred to PVDF membranes (BioRad) for immunoblotting analysis. The membrane was blocked with 5% non-fat skim milk in Tris-buffered saline with tween. Incubation in diluted primary antibodies was conducted overnight and diluted horseradish peroxidase-conjugated secondary antibodies were subsequently applied. Immunoreactive bands were detected using ECL substrate reagent (BioRad), and the membrane was developed using a ChemiDoc XRS + system (BioRad). Primary antibodies used were against: phospho-ERK (Cell Signaling Technology (CST), 4370), ERK (CST, 9102), phospho-Rb (Ser807/811, CST, 8516), β-actin (CST, 3700), and vinculin (Millipore Sigma, 05–386)."}, "[8]": {"system": "p-Rb (Ser807/811) in H2122 cells", "assay": "Western blot of phospho-Rb", "type": "cell-based, human", "conditions": "24 h exposure", "protocol": "as §7"}, "human CYP3A4": {"system": "human CYP3A4", "conditions": "cited from earlier work"}, "[9]": {"conditions": "clinically ref 23; cited from earlier work"}, "[10]": {"system": "H2122-FmC intracranial tumors", "assay": "Intracranial xenograft efficacy study (BLI, survival, body weight)", "type": "in vivo, female nude (athymic) mice", "conditions": "H2122-FmC model", "protocol": "(§8) All the animal studies were conducted in compliance with all applicable regulations and guidelines of the Institutional Animal Care and Use Committee. Six-to-eight-week-old female nude (athymic) mice were obtained from Charles River Laboratory and maintained under pathogen-free conditions, with food and water provided ad libitum. Mice were implanted intracranially with SW1573-FmC (2 × 10^5 in 2 μL serum-free media) or H2122-FmC cells (1.5 × 10^5 in 2 μL serum-free media) in the right striatum region under general anesthesia using stereotactic procedures as previously described. Animal health was monitored daily.\n(§9) Animals were humanely euthanized when > 20% body weight loss or > 15% body weight loss plus neurological signs was noted. Survival data were collected for each group and analyzed using the Kaplan–Meier method. Survival duration by group was tested for statistical significance using the Gehan-Breslow-Wilcoxon test with False Discovery Rate correction. Statistical comparisons were considered significant when the adjusted P value was below 0.05 (P < 0.05).\n(§10) Animals were injected intraperitoneally with luciferin (150 mg/kg, 0.01 mL/g) based on body weight and anesthetized using 1–2% isoflurane in oxygen at 1–2 L/minute. Images were acquired beginning at 7 min after luciferin injection for three time points (7, 15, and 30 min). Region of interest (ROI) analysis was completed on BLI images using AURA software (Spectral Instrument Imaging). BLI images were generated by overlaying BLI signals for each animal onto their respective white-light images for anatomic reference. Brain ROIs were generated using a fixed area circle and were placed based on the BLI signal in the relevant area, using the photographic anatomical reference images. BLI signals in images were scaled in units of radiance (photons per second per […] per steradian). Prism 9 software (Graph Pad) was used to generate relevant plots based on the in vivo quantification.\n(§11) For the caspase 3/7 assay, differences in luminescence signals (from control) were determined using One-Way ANOVA. Differences in BLI radiance were tested for statistical significance using the One-Way ANOVA comparison. Statistical comparisons between two groups were considered significant when the adjusted P value was below 0.05 (P < 0.05). Kaplan–Meier analysis and log-rank test were used for the analysis of animal overall survival, comparing the groups."}, "[11]": {"system": "SW1573-FmC intracranial tumors", "assay": "Intracranial xenograft efficacy study (BLI, survival, body weight)", "type": "in vivo, female nude (athymic) mice", "conditions": "SW1573-FmC model", "protocol": "as §8, §9, §10, §11"}, "H2122 cells [12]": {"system": "H2122 cells", "assay": "CyQUANT cell proliferation assay", "type": "cell-based, human", "conditions": "120 h drug exposure", "protocol": "as §1"}, "[13]": {"system": "caspase 3/7 in SW1573 cells", "assay": "Caspase 3/7-Glo cell death assay", "type": "cell-based, human", "conditions": "48 h, 1,000 nM adagrasib, 1,000 nM abemaciclib, alone or combined", "protocol": "as §11"}, "[14]": {"set-up": "method as in PMID 31658955", "conditions": "cited from earlier work"}, "[15]": {"system": "progressive BM with CDK pathway alterations", "conditions": "patients with progressive BM with CDK pathway alterations ref 21; cited from earlier work"}},
  "note": "pIC50: −log10 of the molar value.",
  "data": [
    {"smiles": "CCN1CCN(Cc2ccc(Nc3ncc(F)c(-c4cc(F)c5nc(C)n(C(C)C)c5c4)n3)nc2)CC1", "note": "[abemaciclib]", "values": [
      {"measurement": "Effect on p-ERK (immunoblot, co-treatment experiment)", "setting": "[1]", "value": "modestly suppressed p-ERK"},
      {"measurement": "Concentration in brain", "setting": "[2]", "value": "200 to 300", "unit": "ng/mL"},
      {"measurement": "Concentration in plasma", "setting": "[2]", "value": "290 to 400", "unit": "ng/mL"},
      {"measurement": "pIC50", "setting": "SW1573 cells [3]; 120-h drug exposure", "value": 6.00},
      {"measurement": "pIC50", "setting": "SW1573 cells [3]; 120 h drug exposure", "value": 6.08},
      {"measurement": "P-gp-mediated efflux interaction", "setting": "human p-gp", "value": "substrates and inhibitors of human p-gp-mediated efflux"},
      {"measurement": "Cleaved caspase 3 (C-Cas3) positivity in tumor (IHC)", "setting": "[4]", "value": "very few C-Cas3 positive cells"},
      {"measurement": "p-ERK-positive cells in tumor (IHC)", "setting": "[4]", "value": "decreased p-ERK-positive cells"},
      {"measurement": "p-Rb-positive cells in tumor (IHC)", "setting": "[4]", "value": "modestly decreased P-Rb immunopositivity"},
      {"measurement": "pIC50", "setting": "H2122-FmC cells", "value": 6.29},
      {"measurement": "pIC50", "setting": "SW1573-FmC cells", "value": 6.00},
      {"measurement": "Effect on cell cycle phase fractions", "setting": "H2122 cells [5]", "value": "significantly increased the fraction of G1 phase and decreased the fractions of S and G2 phases"},
      {"measurement": "Effect on cell cycle phase fractions", "setting": "SW1573 cells [6]", "value": "significantly increased the fraction of G1 phase and decreased the fractions of S and G2 phases"},
      {"measurement": "Effect on p-Rb (Ser807 and Ser811, immunoblot)", "setting": "[7]", "value": "dose-dependent inhibition of p-Rb"},
      {"measurement": "Effect on p-Rb (Ser807 and Ser811, immunoblot)", "setting": "[8]", "value": "dose-dependent inhibition of p-Rb"},
      {"measurement": "CYP3A4 interaction", "setting": "human CYP3A4", "value": "substrate of CYP3A4"},
      {"measurement": "CSF versus plasma concentrations", "setting": "[9]", "value": "comparable concentrations in the CSF and plasma"},
      {"measurement": "Animal survival (Kaplan–Meier) vs control", "setting": "[10]; 5-week treatment, adagrasib 75 mg/kg BID, abemaciclib 50 mg/kg QD", "value": "no survival efficacy"},
      {"measurement": "BLI post-treatment signals vs control", "setting": "[10]; day 40, no statistical significance", "value": "signals comparable to the control"},
      {"measurement": "Overall survival (Kaplan–Meier)", "setting": "[11]; 5-week treatment, animals with pre-treatment spinal disease excluded", "value": "did not show survival benefit"},
      {"measurement": "Overall survival (Kaplan–Meier), all animals included", "setting": "[11]; comparison of the groups, including animals with spinal disease", "value": "No statistical significance"},
      {"measurement": "BLI signal intensity (radiance) vs vehicle", "setting": "[11]; day 40, adagrasib 75 mg/kg BID, abemaciclib 50 mg/kg QD, animals with pre-treatment spinal disease excluded", "value": "lower average BLI compared to the vehicle, without statistical significance"},
      {"measurement": "pIC50", "setting": "H2122 cells [12]", "value": 6.20},
      {"measurement": "pIC50", "setting": "H2122 cells [12]; Homo sapiens, NCI-H2122, 120 h", "value": 6.22},
      {"measurement": "Caspase 3/7 activity", "setting": "[13]", "value": "did not significantly provoke activation of caspase 3/7"}
    ]},
    {"smiles": "C=C(F)C(=O)N1CCN(c2nc(OC[C@@H]3CCCN3C)nc3c2CCN(c2cccc4cccc(Cl)c24)C3)C[C@@H]1CC#N", "note": "[adagrasib]", "values": [
      {"measurement": "P-gp-mediated efflux interaction", "setting": "human p-gp", "value": "substrates and inhibitors of human p-gp-mediated efflux"},
      {"measurement": "Cleaved caspase 3 (C-Cas3) positivity in tumor (IHC)", "setting": "[4]", "value": "trend of increased positivity"},
      {"measurement": "p-ERK-positive cells in tumor (IHC)", "setting": "[4]", "value": "decrease of p-ERK-positive cells"},
      {"measurement": "p-Rb-positive cells in tumor (IHC)", "setting": "[4]", "value": "decreased p-Rb-positive cells"},
      {"measurement": "CYP3A4 interaction", "setting": "human CYP3A4", "value": "time-dependent inhibition of human CYP3A4"},
      {"measurement": "Half-life", "setting": "[14]", "value": 24, "unit": "h"}
    ]},
    {"smiles": "CC(=O)c1c(C)c2cnc(Nc3ccc(N4CCNCC4)cn3)nc2n(C2CCCC2)c1=O", "note": "[palbociclib]", "values": [
      {"measurement": "Intracranial activity in patients", "setting": "[15]", "value": "demonstrated intracranial activity"}
    ]}
  ]
}
